From patent US7056924B2, “Substituted heterocyclic compounds” (CV Therapeutics, Inc., priority 2002, dated 2006)
pIC50: −log10 of the molar value.

Test system: Palmitoyl CoA oxidation in rat heart mitochondria
Assay: Mitochondrial assay: Palmitoyl CoA oxidation
Assay type: biochemical
Details: 16 microM 1-C14 palmitoyl CoA, 15 min at 30° C., read-out: Effect of Compounds of the Invention on Palmitoyl CoA Oxidation (IC50)
Method: Rat heart mitochondria were isolated by the method of Nedergard and Cannon (Methods in Enzymol. 55, 3, 1979).
Palmitoyl CoA oxidation—The Palmitoyl CoA oxidation was carried out in a total volume of 100 micro liters containing the following agents: 110 mM KCl, 33 mM Tris buffer at pH 8, 2 mM KPi, 2 mM MgCl2, 0.1 mM EDTA, 14.7 microM defatted BSA, 0.5 mM malic acid, 13 mM carnitine, 1 mM ADP, 52 micrograms of mitochondrial protein, and 16 microM 1-C14 palmitoyl CoA (Sp. Activity 60 mCi/mmole; 20 microCi/ml, using 5 microliters per assay). The compounds of this invention were added in a DMSO solution at the following concentrations: 100 micro molar, 30 micro molar, and 3 micro molar. In each assay, a DMSO control was used. After 15 min at 30° C., the enzymatic reaction was centrifuged (20,000 g for 1 min), and 70 microliters of the supernatant was added to an activated reverse phase silicic acid column (approximately 0.5 ml of silicic acid). The column was eluted with 2 ml of water, and 0.5 ml of the eluent was used for scintillation counting to determine the amount of C^14 trapped as C^14 bicarbonate ion.

| Substance | pIC50 |
| --- | --- |
| (2R)-3-(2-methylbenzothiazol-5-yloxy)-1-[4-({5-[3-(trifluoromethyl)phenyl](1,3,4-oxadiazol-2-yl)}methyl)piperazinyl]propan-2-ol | 5.20 |
| (2R)-1-[(3S)-3-methyl-4-({5-[4-(trifluoromethyl)phenyl](1,2,4-oxadiazol-3-yl)}methyl)piperazinyl]-3-(2-methylbenzothiazol-5-yloxy)propan-2-ol | 5.33 |
| (2R)-1-((2S)-2-methyl-4-{[5-(4-methylphenyl)(1,3,4-oxadiazol-2-yl)]methyl}piperazinyl)-3-(2-methylbenzothiazol-5-yloxy)propan-2-ol | 6.27 |
| (2R)-3-(2-methylbenzothiazol-5-yloxy)-1-{4-[(5-phenyl(1,3,4-oxadiazol-2-yl))methyl]piperazinyl}propan-2-ol | 5.96 |

The next substances have a higher pIC50 than those just listed; values first:

| pIC50 | Substance |
| --- | --- |
| 6.36 | 3-{(2R)-2-methyl-4-[(5-phenylisoxazol-3-yl)methyl]piperazinyl}(2S)-1-(2-methylbenzothiazol-5-yloxy)propan-2-ol |
| 6.60 | (2R)-3-((3S)-3-methyl-4-{[5-(4-trifluoromethylphenyl)isoxazol-3-yl]methyl}-piperazinyl)-1-(2-methylbenzothiazol-5-yloxy)propan-2-ol |
| 6.39 | (2R)-1-((3S)-4-{[2-(4-chlorophenyl)(1,3-thiazol-4-yl)]methyl}-3-methylpiperazinyl)-3-(2-methylbenzothiazol-5-yloxy)propan-2-ol |
| 6.48 | (2R)-3-{(3S)-3-methyl-4-[(5-(4-chlorophenyl)isoxazol-3-yl)methyl]piperazinyl}-1-(2-methylbenzothiazol-5-yloxy)propan-2-ol |
